Measurements from patent US7993687B2, “Compositions and methods for management of diabetes” (priority 2006, dated 2011).
Entries after “also recorded” stand apart in the source; their conditions may differ.

Legend:
Type in all cases: cell-based, rat
STAT3 (Tyr705) = test: Western blot of STAT3 phosphorylation in H4IIE cells; conditions: 6 minutes
Protocol: (§1) Tissue culture media, antibiotics, fetal bovine serum (FBS) and Nunc tissue culture plates were purchased from Invitrogen Canada Inc. (Burlington, Ontario, Canada, L7P 1A1). Insulin (Sigma-Aldrich Canada Ltd., Oakville, Ontario, Canada, L6H 6J8) was dissolved in water and added directly to cells at a concentration of 250 nM unless otherwise indicated. The BWE was prepared and analyzed as described in Example 1. Two μL of the BWE were added directly to cells unless otherwise indicated. This amount was chosen on the basis of equivalence to insulin. Myo-inositol (Sigma-Aldrich Canada Ltd.) and D-chiro-inositol (Industrial Research Ltd., Wellington, New Zealand) were dissolved in water at an equal concentration to the amounts present in the BWE (Table 3) and 2 μL of each solution (0.1% v/v final concentration) was added directly to cells.
(§2) Rat H4IIE hepatoma cells (American Type Culture Collection, CRL 1548) were cultured following the method disclosed by Yau et al., (1998, Eur. J. Biochem. 253: 91-1). The H4IIE cells were maintained in α-modified Eagle's media containing 10% FBS, 2 mM glutamine, 25 μg·mL^−1 streptomycin and 25 units·mL^−1 penicillin. Cells were plated and grown to 70% confluence. All cells were placed into serum-free medium for 72 h before addition of stimulating agents to ensure entry into a quiescent state. […]
(§3) Cellular protein extracts were prepared by addition of 200 μL 2×SDS/gel loading buffer (0.125 M Tris pH 6.8, 2% SDS, 10% glycerol) to H4IIE cells in 12-well culture dishes. The samples were briefly sonicated, and protein content measured using the BCA protein assay kit. […] HRP was detected using the ECL chemiluminescent system after the membranes had been washed four times.
(§4) Quantification of data obtained on film (Kodak X-omat) was accomplished with a GS800 imaging densitometer (Bio-Rad Laboratories) under nonsaturating conditions with local background subtraction. […]

[1] = tested on: mitogen-activated protein kinase (MAPK); test: Western blot of MAPK phosphorylation in FAO hepatoma cells
Protocol: FAO cells are related to H4IIE since both cell lines were derived from Reuber H35 cells (Richardson et al., 1969, J. Cell Biol. 40: 236-247). […] FAO hepatoma cells were propagated under the same culture conditions used for H4IIE cells. Quiescent FAO cells were obtained by placing the cells into serum-free medium for 3 days.
(§5) Cultures of quiescent H4IIE cells or quiescent FAO cells were placed into 12-well culture dishes containing 2 mL serum-free medium, and then stimulated by direct addition of the inhibitors listed in Table 1 (volumes of additions were 10 μL or less) without replacing the medium. Inhibitors were added 10 minutes before the stimulating agents except for pertussis toxin which was added 4 hours prior. The cells in 12-well culture dishes were incubated with stimulating agents for 6 minutes and rinsed with phosphate buffered saline (PBS; 0.9% NaCl, 0.1 M Na3PO4, pH 7.1).
(§6) Cellular protein extracts were prepared by addition of 200 μL 2×SDS/gel loading buffer (0.125 M Tris pH 6.8, 2% SDS, 10% glycerol) to H4IIE cells in 12-well culture dishes. The samples were briefly sonicated, and protein content measured using the BCA protein assay kit. Aliquots containing equal amounts of protein were mixed with bromophenol blue (0.5% (w/v) final concentration) and 2-mercaptoethanol (5% (v/v) final concentration), heated at 95° C. and loaded onto 7.5% or 10% polyacrylamide gels. […] Primary antibodies (diluted 1:1000 in 3% (w/v) BSA) were incubated with the membrane for 60 min at 22° C. Membranes were subsequently washed four times and incubated for an additional 60 min at 1 8-22° C. in 1% (w/v) BSA-TBST with diluted HRP-coupled secondary antibody (1:10 000). HRP was detected using the ECL chemiluminescent system after the membranes had been washed four times.
as §4

Src (Tyr527) = test: Western blot of Src phosphorylation in H4IIE cells; conditions: 6 minutes
Protocol: as §1, §2, §3, §4

[2] = tested on: Insulin receptor substrate-I (Tyr941); test: Western blot of IRS-1 phosphorylation in H4IIE cells; conditions: 6 minutes
Protocol: as §1, §2, §3, §4

[3] = tested on: Insulin receptor (Tyr1146); test: Western blot of insulin receptor phosphorylation in H4IIE cells; conditions: 6 minutes
Protocol: as §1, §2, §3, §4

[4] = tested on: p42/44 MAPK (Thr202/Tyr204); test: Western blot of MAPK phosphorylation in H4IIE cells; conditions: for phosphorylation of MAPK (FIG. 9): 6 minutes, insulin 250 nM, 2 μL of BWE, D-CI or MI solution
Protocol: as §1, with “This amount was chosen on the basis of equivalence to insulin.” left out
(§7) Rat H4IIE hepatoma cells (American Type Culture Collection, CRL 1548) were cultured following the method disclosed by Yau et al., (1998, Eur. J. Biochem. 253: 91-1). The H4IIE cells were maintained in α-modified Eagle's media containing 10% FBS, 2 mM glutamine, 25 μg·mL^−1 streptomycin and 25 units·mL^−1 penicillin. Cells were plated and grown to 70% confluence. All cells were placed into serum-free medium for 72 h before addition of stimulating agents to ensure entry into a quiescent state.
as §5, with “Inhibitors were added 10 minutes before the stimulating agents except for pertussis toxin which was added 4 hours prior.” left out
as §6
Quantification of data obtained on film (Kodak X-omat) was accomplished with a GS800 imaging densitometer (Bio-Rad Laboratories) under nonsaturating conditions with local background subtraction. Although multiple exposures were acquired to ensure the absence of film saturation, the experimental figures typically show longer exposures selected specifically for visual presentation and not necessarily used for data analysis. Graphical data are presented as means±SE for a minimum of three replicate samples. […]

[5] = tested on: p70S6K (Thr389 and Thr421); test: Western blot of p70S6K phosphorylation in H4IIE cells
Protocol: as §1, §7
as §5, with “Inhibitors were added 10 minutes before the stimulating agents except for pertussis toxin which was added 4 hours prior.” left out
as §6
Quantification of data obtained on film (Kodak X-omat) was accomplished with a GS800 imaging densitometer (Bio-Rad Laboratories) under nonsaturating conditions with local background subtraction. Although multiple exposures were acquired to ensure the absence of film saturation, the experimental figures typically show longer exposures selected specifically for visual presentation and not necessarily used for data analysis. Graphical data are presented as means±SE for a minimum of three replicate samples.

GSK3 (Ser21/9) = test: Western blot of GSK3 phosphorylation in H4IIE cells; conditions: 6 minutes
Protocol: as §1, §2, §3, §4

Akt (Ser473) = test: Western blot of Akt phosphorylation in H4IIE cells; conditions: 6 minutes
Protocol: as §1, §2, §3, §4

[6] = insulin-stimulated, 6 min, 15-min preincubation with the inhibitor (None = insulin alone), one experiment

| Compound | phosphorylation of STAT3 (STAT3 (Tyr705)) | phosphorylation of MAPK in FAO cells (FIG. 10) [1] | phosphorylation of Src (Src (Tyr527)) | phosphorylation of IRS-1 [2] | phosphorylation of InsR [3] | phosphorylation of MAPK (FIG. 9) [4] | phosphorylation of p70S6K (Thr421) ([5]; 6 minutes) | phosphorylation of GSK3 (GSK3 (Ser21/9)) | phosphorylation of Akt (Akt (Ser473)) | p42/44 P-MAPK (Thr202/Tyr204) phosphorylation, stimulation (fold) relative to the control ([4]; BWE-stimulated, 6 min, 15-min preincubation with the inhibitor (None = BWE alone), one experiment) [fold] | p42/44 P-MAPK (Thr202/Tyr204) phosphorylation, stimulation (fold) relative to the control [4, 6] [fold] | effect of the inhibitor on insulin- and BWE-stimulated phosphorylation of MAPK ([4]; preincubation with inhibitor, then insulin or BWE for 6 minutes) | effect of the inhibitor on insulin-stimulated phosphorylation of p70S6K (Thr389) ([5]; 15-minute pre-incubation with inhibitor, then INS 6 minutes) | effect of the inhibitor on insulin- and BWE-stimulated phosphorylation of p70S6K (Thr421) ([5]; 15-minute pre-incubation with inhibitor, then INS or BWE 6 minutes) | phosphorylation of MAPK, stimulation (fold) relative to the control (Table 6) ([4]; insulin treatment, 6 min, 15-min preincubation with PKA/PKC inhibitor (None = insulin alone), one experiment) [fold] | phosphorylation of p70S6K (Thr389) ([5]; 6 minutes) |
| --- | --- | --- | --- | --- | --- | --- | --- | --- | --- | --- | --- | --- | --- | --- | --- | --- |
| OC1C(O)C(O)C(O)C(O)C1O [D-CI, D-chiro-inositol] | do not provide comparable stimulation | did not | do not provide comparable stimulation | do not provide comparable stimulation | do not provide comparable stimulation | neither D-CI nor MI increased phosphorylation | unable to effect phosphorylation | do not provide comparable stimulation | do not provide comparable stimulation |  |  |  |  |  |  |  |
| O[C@H]1[C@H](O)[C@@H](O)[C@H](O)[C@@H](O)[C@H]1O [MI, myo-inositol] | do not provide comparable stimulation | did not | do not provide comparable stimulation | do not provide comparable stimulation | do not provide comparable stimulation | neither D-CI nor MI increased phosphorylation | unable to effect phosphorylation | do not provide comparable stimulation | do not provide comparable stimulation |  |  |  |  |  |  |  |
| COc1cccc(-c2cc(=O)c3ccccc3o2)c1N [PD98059] |  |  |  |  |  |  |  |  |  | 1.00 | 1 | inhibited | independent of MAPK | MAPK-dependent (PD98059 sensitive) |  |  |
| insulin: Insulin (Sigma-Aldrich) dissolved in water, positive comparator | phosphorylated in response to insulin | stimulated MAPK phosphorylation | phosphorylated in response to insulin | phosphorylated in response to insulin | phosphorylated in response to insulin; also recorded: stimulated by insulin only | increased the phosphorylation of MAPK | stimulates the phosphorylation of p70^S6K on both residues | phosphorylated in response to insulin | phosphorylated in response to insulin |  | 13.3 |  |  |  | 3.53 | stimulates the phosphorylation of p70^S6K on both residues |
